Type in all cases: biochemical
In one test the target is T1, PIP4K2B (Homo sapiens, UniProt P78356).
T1 construct: made in house; host or cells: E. coli
T1 sequence (P78356 1-416): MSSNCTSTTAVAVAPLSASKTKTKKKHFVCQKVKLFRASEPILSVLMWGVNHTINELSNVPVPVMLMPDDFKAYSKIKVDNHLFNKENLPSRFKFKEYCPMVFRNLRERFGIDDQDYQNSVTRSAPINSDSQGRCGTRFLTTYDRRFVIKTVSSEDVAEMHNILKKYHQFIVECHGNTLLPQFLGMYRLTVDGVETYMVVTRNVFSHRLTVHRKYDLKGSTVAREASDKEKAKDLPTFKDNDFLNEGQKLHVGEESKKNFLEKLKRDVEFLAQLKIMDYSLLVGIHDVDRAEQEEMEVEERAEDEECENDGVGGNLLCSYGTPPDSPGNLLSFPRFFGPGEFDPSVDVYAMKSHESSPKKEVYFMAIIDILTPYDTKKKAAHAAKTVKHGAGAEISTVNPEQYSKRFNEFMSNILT
In words: Trans-FI P kinase assay PIP4K2B (PIP4KtypeIIB inhibition assay). As to conditions: compounds listed under IC50 bin headings; 100 uM GTP; read-out: Trans-FI P kinase assays: PIP4K2B IC50. The essentials:
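Transcreener FI fluorescence read-out of GDP formed by E. coli-expressed GST-PIP4K2B (5 nM) using 100 uM GTP and 80 uM PI5P with DOPE carrier lipid, pH 7.3, 2 h reaction. Compounds (up to 4.8 uM) were preincubated with enzyme 1 h at 27 C; IC50 fitted from residual activity relative to no-inhibitor control.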

Test [1] deals with T2, PIP4K 2A (Homo sapiens, UniProt P48426).
T2 sequence (P48426 1-406): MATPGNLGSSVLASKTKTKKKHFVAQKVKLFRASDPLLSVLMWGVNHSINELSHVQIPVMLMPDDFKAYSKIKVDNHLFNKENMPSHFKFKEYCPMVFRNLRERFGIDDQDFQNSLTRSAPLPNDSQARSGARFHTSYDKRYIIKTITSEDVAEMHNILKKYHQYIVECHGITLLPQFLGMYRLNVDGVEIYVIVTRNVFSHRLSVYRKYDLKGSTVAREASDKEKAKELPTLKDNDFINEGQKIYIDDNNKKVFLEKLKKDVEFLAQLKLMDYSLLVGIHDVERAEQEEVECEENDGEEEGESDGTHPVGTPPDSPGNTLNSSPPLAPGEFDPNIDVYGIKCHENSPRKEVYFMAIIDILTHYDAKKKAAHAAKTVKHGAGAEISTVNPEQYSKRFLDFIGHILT
In words: Kinase Assay PIP4K2 A (PIP4KtypeIIA inhibition assay). More on the design: made in house; host or cells: E. coli. Particulars: compounds listed under IC50 bin headings. The method, boiled down: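 GST-tagged enzyme from E. coli at 0.5 nM final was preincubated with compound for 1 h at 27 C, then reacted with 10 uM ATP, 80 uM PI5P and DOPE carrier in 50 mM HEPES pH 7.3, 5% DMSO. After 1 h, ADP was measured by ADP-Glo luminescence against a calibration curve. IC50 was fitted from % residual activity.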

Test [2] has as its target T2, PIP4K 2A. In words: ADP-glo kinase assay PIP4K 2A. More on the design: 4 nM PIP4K2A (full length protein, SignalChem); purchased SignalChem. As to conditions: compounds listed under IC50 bin headings. The essentials: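 Inhibition was calculated versus DMSO controls from ADP-Glo luminescence and fitted to IC50 over a 10-point, threefold series. Compound was first pre-incubated 15 min at room temperature with PIP4K2A (full-length; 4 nM in the enzyme/substrate mix) and PI(5)P diC8 (100 μM in that mix). The reaction then ran for 1 h after adding 60 μM ATP solution, in MOPS pH 7.2/MgCl2/Tween buffer.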
On the technique in general: In ADP-Glo the light output rises with the ADP produced.

What is called IC50 is the midpoint of a concentration-inhibition curve. Consider `COCCC(=O)N1CCN(c2cncc(Nc3cc4c(cn3)-c3ccc(N5CCCC5=O)cc3OC4(C)C)c2)CC1` [Example 170, 1-(3-((5-(4-(3-methoxypropanoyl)piperazin-1-yl)pyridin-3-yl)amino)-5,5-dimethyl-5H-chromeno[4,3-c]pyridin-8-yl)pyrrolidin-2-one], for which the IC50 is 10 to 100 nM at PIP4K2B, at most 1 nM at PIP4K 2A [1] and 1 to 10 nM against PIP4K 2A [2].

In the case of `COCCC(=O)N1CCN(c2cncc(Nc3cc4c(cn3)-c3cc(F)c(N5CCCC5=O)cc3OC4(C)C)c2)CC1` [Example 173, 1-(9-fluoro-3-((5-(4-(3-methoxypropanoyl)piperazin-1-yl)pyridin-3-yl)amino)-5,5-dimethyl-5H-chromeno[4,3-c]pyridin-8-yl)pyrrolidin-2-one], the IC50 on PIP4K2B fell in the range of 10 to 100 nM; at PIP4K 2A [1] it was 1 to 10 nM; on PIP4K 2A [2] it was 1 to 10 nM.

As for `C[C@H]1Oc2cc(N3CCCC3=O)ccc2-c2cnc(Nc3cnc4c(c3)N3C(=O)CC[C@H]3CO4)cc21` [Example 192, (S)-2-(((R)-5-methyl-8-(2-oxopyrrolidin-1-yl)-5H-chromeno[4,3-c]pyridin-3-yl)amino)-6,6a,7,8-tetrahydro-9H-pyrido[2,3-b]pyrrolo[1,2-d][1,4]oxazin-9-one], the IC50 on PIP4K2B is 10 to 100 nM; on PIP4K 2A [1], at most 1 nM; on PIP4K 2A [2], at most 1 nM.

As for `O=C1CCCN1c1ccc2c(c1)OC1(COC1)c1cc(Nc3cnc4c(c3)N3C(=O)CC[C@H]3CO4)ncc1-2` [Example 194, (S)-2-((8-(2-oxopyrrolidin-1-yl)spiro[chromeno[4,3-c]pyridine-5,3′-oxetan]-3-yl)amino)-6,6a,7,8-tetrahydro-9H-pyrido[2,3-b]pyrrolo[1,2-d][1,4]oxazin-9-one], the IC50 on PIP4K2B is 1 to 10 nM; on PIP4K 2A [1], 1 to 10 nM; against PIP4K 2A [2], at most 1 nM.

For `O=C1CCCN1c1ccc2c(c1)OC1(CCC1)c1cc(Nc3cnc4c(c3)N3C(=O)CC[C@H]3CO4)ncc1-2` [Example 195, (S)-2-((8-(2-oxopyrrolidin-1-yl)spiro[chromeno[4,3-c]pyridine-5,1′-cyclobutan]-3-yl)amino)-6,6a,7,8-tetrahydro-9H-pyrido[2,3-b]pyrrolo[1,2-d][1,4]oxazin-9-one], the IC50 was 1 to 10 nM at PIP4K2B, at most 1 nM at PIP4K 2A [1] and at most 1 nM at PIP4K 2A [2].

For the compound `O=C1CCCN1c1ccc2c(c1)OCc1c(-c3ccncc3)cncc1-2` [Example 202, 1-(4-(pyridin-4-yl)-5H-chromeno[4,3-c]pyridin-8-yl)pyrrolidin-2-one], the results for the IC50 at PIP4K2B, against PIP4K 2A [1] and at PIP4K 2A [2] were over 1000 nM, 100 to 1000 nM and over 1000 nM, respectively.

Source of the values: patent US11584763B2, “Chromenopyridine derivatives as phosphatidylinositol phosphate kinase inhibitors” (HIBERCELL, INC., priority 2017, dated 2023).
